This note sets out measurements from ChEMBL document CHEMBL1141815, “KR025, a new cytotoxic compound from Myxococcus fulvus” (J Nat Prod, 1999).

The IC50 is the concentration that gives 50% inhibition.

Type in all cases: functional, cell-based
One assay deals with HCT-15. Briefly: Cytotoxicity against human HCT-15 cells after 72 hrs by SRB assay. As to conditions: HCT-15, 72 h. For orientation: Sulforhodamine B stains cellular protein and so reports cell mass.
The test system of another assay is SK-MEL-2. Description: Cytotoxicity against human SK-MEL-2 cells after 72 hrs by SRB assay. As to conditions: SK-MEL-2, 72 h.
A further assay concerns XF498. Description: Cytotoxicity against human XF498 cells after 72 hrs by SRB assay. As to conditions: XF498, 72 h.
The next assay deals with A549. Description: Cytotoxicity against human A549 cells after 72 hrs by SRB assay. As to conditions: A549, 72 h.
A further assay relates to SK-OV-3. Description: Cytotoxicity against human SKOV3 cells after 72 hrs by SRB assay. As to conditions: SK-OV-3, 72 h.

In brackets after ≈: the same amount, converted by molar mass.

In the case of `COC(=O)/C=C(/OC)[C@H](C)[C@H](/C=C/c1csc(-c2cnc([C@@H](C)/C=C/C=C/C(C)C)s2)n1)OC`, the IC50 with HCT-15 amounted to 0.06 ng/mL (≈ 0.119 nM); in the assay on SK-MEL-2, 8.5 ng/mL (≈ 16.9 nM); in the assay on XF498 it was 0.03 ng/mL (≈ 0.0597 nM); in the assay with A549, 0.02 ng/mL (≈ 0.0398 nM); in the assay with SK-OV-3, 0.04 ng/mL (≈ 0.0796 nM).
The corresponding values for `CCCCCC[C@H]1C(=O)O[C@H](C)[C@H](NC(=O)c2cccc(NC=O)c2O)C(=O)O[C@@H](C)[C@@H]1OC(=O)CC(C)C` [ANTIMYCIN A] are 410 ng/mL (≈ 747 nM), 270 ng/mL (≈ 492 nM), 390 ng/mL (≈ 711 nM), 480 ng/mL (≈ 875 nM) and 5500 ng/mL (≈ 10000 nM).
On to `CO/C(=C/C(N)=O)[C@H](C)[C@H](/C=C/c1csc(-c2csc([C@@H](C)/C=C/C=C/C(C)C)n2)n1)OC` [MYXOTHIAZOL], for which the IC50 is 0.03 ng/mL (≈ 0.0615 nM) in the assay on HCT-15; 9.7 ng/mL (≈ 19.9 nM) in the assay on SK-MEL-2; 0.03 ng/mL (≈ 0.0615 nM) in the assay with XF498; 0.01 ng/mL (≈ 0.0205 nM) with A549; 0.01 ng/mL (≈ 0.0205 nM) in the assay on SK-OV-3.
